Measured values from PubChem BioAssay (NCI).
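Growth conditions: 96-well plates. Treatment: test compound, 48 hours, 5 concentrations. Analysis: linear interpolation between bracketing concentrations; unreached endpoints set to highest concentration. GI50 is the concentration that inhibits growth by half. TGI marks complete inhibition of growth.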

Experiments:
Assay in all cases: NCI anticancer screen, dose series, 48 h
ACHN renal = system: ACHN renal
CCRF-CEM leukemia = system: CCRF-CEM leukemia
HOP-92 NSCLC = system: HOP-92 NSCLC
LOX IMVI melanoma = system: LOX IMVI melanoma
MCF7 breast = system: MCF7 breast
MDA-MB-231 breast = system: MDA-MB-231 breast
OVCAR-3 ovarian = system: OVCAR-3 ovarian
SK-MEL-5 melanoma = system: SK-MEL-5 melanoma
SNB-19 CNS = system: SNB-19 CNS
SR leukemia = system: SR leukemia

| SMILES | TGI (ACHN renal) | TGI (CCRF-CEM leukemia) | TGI (HOP-92 NSCLC) | TGI (LOX IMVI melanoma) | TGI (MCF7 breast) | TGI (MDA-MB-231 breast) | TGI (OVCAR-3 ovarian) | TGI (SK-MEL-5 melanoma) | TGI (SNB-19 CNS) | TGI (SR leukemia) | GI50 (SR leukemia) | GI50 (ACHN renal) | GI50 (CCRF-CEM leukemia) | GI50 (HOP-92 NSCLC) | GI50 (LOX IMVI melanoma) | GI50 (MCF7 breast) | GI50 (MDA-MB-231 breast) | GI50 (OVCAR-3 ovarian) | GI50 (SK-MEL-5 melanoma) | GI50 (SNB-19 CNS) |
| --- | --- | --- | --- | --- | --- | --- | --- | --- | --- | --- | --- | --- | --- | --- | --- | --- | --- | --- | --- | --- |
| Cc1ccc(Nc2nc(=S)[nH]c3[nH]ncc23)cc1 | > 100 µM | > 100 µM | > 100 µM | > 100 µM | > 100 µM | > 100 µM | > 100 µM | > 100 µM | > 100 µM | > 100 µM |  |  |  |  |  |  |  |  |  |  |
| OC1(c2ccccc2)CC2CCC(C1)N2CCc1ccccc1 (stereo unspecified) | > 100 µM | > 100 µM | > 100 µM | > 100 µM | 78.1 µM | > 100 µM | > 100 µM | 28.6 µM | > 100 µM | > 100 µM |  |  |  |  |  |  |  |  |  |  |
| COc1cc(NS(C)(=O)=O)ccc1NCc1cnc2ccc3[nH]c(C)ccc3c12 | > 100 µM | 67.2 µM | > 100 µM | > 100 µM | > 100 µM | > 100 µM | 91.9 µM | > 100 µM | > 100 µM | 33.5 µM |  |  |  |  |  |  |  |  |  |  |
| COc1ccc(/C=C2\C=Cc3ccccc32)cc1OC | > 100 µM | > 100 µM | 64.9 µM | > 100 µM | > 100 µM | > 100 µM | > 100 µM | > 100 µM | > 100 µM | > 100 µM |  |  |  |  |  |  |  |  |  |  |
| CCN(CC)C(=S)SS(=O)(=O)c1ccccc1C(=O)O | > 100 µM | > 100 µM | > 100 µM | > 100 µM | > 100 µM | > 100 µM | > 100 µM | > 100 µM | > 100 µM | > 100 µM |  |  |  |  |  |  |  |  |  |  |
| Cc1ccc(S(=O)ON2CCC(C(=O)O)(c3ccccc3)CC2)cc1 (stereo unspecified) | > 100 µM | > 100 µM | > 100 µM | > 100 µM | > 100 µM | > 100 µM | > 100 µM | > 100 µM | > 100 µM | > 100 µM | > 100 µM |  |  |  |  |  |  |  |  |  |
| CCCCCCCCC[C@@H]1C[C@@H]2CCC3C(C(=O)OC)=C(C)NC(=N1)N32 (stereo partly specified) | 32.1 µM | > 100 µM | 27.3 µM | 26.5 µM | 15.9 µM | 20 µM | 11.6 µM | 20.4 µM | 18.6 µM | > 100 µM |  |  |  |  |  |  |  |  |  |  |
| Brc1cccc(/C=C/CN2CCN(CCOC(c3ccccc3)c3ccccc3)CC2)c1 | 33.1 µM | 29.5 µM | 17.8 µM | 27.6 µM | 29.5 µM | 29.1 µM | 30.2 µM | 33.6 µM | 37.7 µM | 28.3 µM |  |  |  |  |  |  |  |  |  |  |
| CSc1ccc2c(cc1=O)[C@@H](NC(C)=O)CCc1cc(O)c(O)c(O)c1-2 | 46.8 µM | > 100 µM | 70.6 µM | > 100 µM | 19.8 µM | 72.2 µM | 34.2 µM | > 100 µM | 78.9 µM | > 100 µM |  |  |  |  |  |  |  |  |  |  |
| C/C(=N/NC(=S)Nc1ccccc1Cl)c1ccccn1 | 8.59 µM | 1.1 µM | 22.7 µM | 16 µM | 0.27 µM | 17.3 µM | 10.9 µM | 8.67 µM | 48.5 µM | 3.22 µM |  |  |  |  |  |  |  |  |  |  |
| c1ccc(N=C2c3ccccc3CN2c2ccccc2)cc1 | > 100 µM | > 100 µM | > 100 µM | > 100 µM | > 100 µM | > 100 µM | > 100 µM | > 100 µM | > 100 µM | > 100 µM |  |  |  |  |  |  |  |  |  |  |
| S=c1ssc2c3ssc(=S)c3n(Cc3ccccc3)c12 | > 100 µM | 58.2 µM | > 100 µM | > 100 µM | > 100 µM | > 100 µM | > 100 µM | > 100 µM | > 100 µM | > 100 µM |  |  |  |  |  |  |  |  |  |  |
| COc1ccc(OC)c(C2CCc3nc4nc(N)nc(N)c4cc3C2)c1 (stereo unspecified) | 29.5 µM | 9.44 µM | 5.76 µM | 8.14 µM | 3.68 µM | 5.4 µM | 3.54 µM | 18.6 µM | 6.01 µM | 7.06 µM |  |  |  |  |  |  |  |  |  |  |
| COc1c2c(c(OC)c3c1c(=O)c1ccccc1n3C)OCO2 | > 100 µM | > 31.6 µM | > 100 µM | > 100 µM | > 100 µM | > 31.6 µM | > 100 µM | 15.7 µM | > 100 µM | > 29.7 µM |  |  |  |  |  |  |  |  |  |  |
| Clc1ccc(-c2nn3c(CCCCCCCCc4nnc5sc(-c6ccc(Cl)cc6)nn45)nnc3s2)cc1 | > 100 µM | 60.3 µM | > 100 µM | 24.5 µM | > 73.3 µM | > 100 µM | 59 µM | 60.3 µM | > 87.6 µM | > 74.3 µM |  |  |  |  |  |  |  |  |  |  |
| CCOC(=O)CN1CCNCCN(CC(=O)OCC)CCNCC1 | > 100 µM | > 100 µM | > 100 µM | > 100 µM | > 100 µM | > 100 µM | > 100 µM | > 100 µM | > 100 µM | > 100 µM |  |  |  |  |  |  |  |  |  |  |
| CN1CCCN2CCN(C)CCN(CC1)CC2 | > 100 µM | > 100 µM | > 100 µM | > 100 µM | > 100 µM | > 100 µM | > 100 µM | > 100 µM | > 100 µM | > 100 µM |  |  |  |  |  |  |  |  |  |  |
| CCOc1c2ccsc2c(OCC)c2ccsc12 | > 100 µM | > 100 µM | 86.2 µM | 23 µM | 31.7 µM | > 100 µM | 61.1 µM | > 29.5 µM | > 100 µM | > 100 µM |  |  |  |  |  |  |  |  |  |  |
| CN1C2CCC1CC(OC(c1ccccc1)c1ccccc1)C2 (stereo unspecified) | 59.2 µM | 29.9 µM | 29.1 µM | 29.4 µM | 26.9 µM | 32.7 µM | 47 µM | 29.1 µM | 48.3 µM | 42 µM |  |  |  |  |  |  |  |  |  |  |
| CCOP(=O)(OCC)C(NC(=O)OCC(Cl)(Cl)Cl)n1nnc(C(=O)OC)c1C(=O)OC (stereo unspecified) | > 100 µM | > 100 µM | > 100 µM | > 100 µM | > 100 µM | > 100 µM | > 100 µM | > 100 µM | > 100 µM | > 100 µM |  |  |  |  |  |  |  |  |  |  |
| CCc1ccc(-c2nnc(COc3ccc(-c4nc5ccc(C)cc5[nH]4)cc3OC)o2)cc1 | 3.19 µM | > 100 µM | 5.83 µM | 4.25 µM | > 100 µM | 4.87 µM | 4.49 µM | 4.09 µM | > 100 µM | 5.22 µM | 2.08 µM | 1.78 µM | 3.06 µM | 2.07 µM | 1.98 µM | 3.36 µM | 2.05 µM | 2.23 µM | 1.97 µM | 4.63 µM |
| CCOC(=O)C1(C(=O)OCC)C[C@]23OCCC(=O)[C@H]2[C@H]2C(=O)OC(C)(C)O[C@]23C1 | > 100 µM | > 100 µM | > 100 µM | > 100 µM | > 100 µM | > 100 µM | > 100 µM | > 100 µM | > 100 µM | > 100 µM |  |  |  |  |  |  |  |  |  |  |
| COC(=O)c1ccccc1C1CN=NC12Cc1ccc3ccccc3c1C2=O (stereo unspecified) | > 100 µM | > 100 µM | > 100 µM | > 100 µM | > 100 µM | > 100 µM | > 100 µM | > 100 µM | > 100 µM | > 100 µM |  |  |  |  |  |  |  |  |  |  |
| CCOC(=O)C1C(=O)CC(O)(OCC)C(C(=O)OCC)C1c1ccc(OC)cc1 (stereo unspecified) | > 100 µM | > 100 µM | > 100 µM | > 100 µM | > 100 µM | > 100 µM | > 100 µM | > 100 µM | > 100 µM | > 100 µM |  |  |  |  |  |  |  |  |  |  |
| Cc1ccc(/C=C2\CN(C)CC3=C2OC(N)=C(C#N)C3c2ccc(C)cc2)cc1 (stereo unspecified) | 50 µM | 22 µM | 15.9 µM | 27.2 µM | 47.8 µM | > 63.7 µM | 29.8 µM | > 100 µM | 73.4 µM | > 100 µM |  |  |  |  |  |  |  |  |  |  |
| O=C(OCCN=C1c2ccccc2CCc2ccccc21)c1cc([N+](=O)[O-])cc([N+](=O)[O-])c1 | > 31.6 µM | > 100 µM | > 31.6 µM | > 31.6 µM | > 31.6 µM | > 31.6 µM | > 31.6 µM | > 31.6 µM | > 31.6 µM | 5.5 µM |  |  |  |  |  |  |  |  |  |  |
